Assay results taken from patent US12466820B2, “Amino quinazoline derivatives as P2X3 inhibitors” (CHIESI FARMACEUTICI S.p.A., priority 2019, dated 2025).

Target: T1, h P2X3 (Homo sapiens, UniProt P56373)
T1 sequence (P56373 1-397): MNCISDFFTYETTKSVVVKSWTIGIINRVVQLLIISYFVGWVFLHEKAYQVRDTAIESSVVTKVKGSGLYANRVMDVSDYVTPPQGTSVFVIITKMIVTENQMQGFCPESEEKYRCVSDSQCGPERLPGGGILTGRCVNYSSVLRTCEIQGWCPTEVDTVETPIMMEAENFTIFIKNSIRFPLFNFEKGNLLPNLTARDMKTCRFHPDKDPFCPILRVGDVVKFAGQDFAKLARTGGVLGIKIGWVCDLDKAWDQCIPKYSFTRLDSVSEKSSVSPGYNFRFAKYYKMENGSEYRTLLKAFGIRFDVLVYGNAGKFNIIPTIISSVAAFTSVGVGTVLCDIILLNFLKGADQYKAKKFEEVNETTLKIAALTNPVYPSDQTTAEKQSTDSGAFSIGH
Assay: In vitro electrophysiology assay for P2X3 (automated whole-cell patch clamp, Sophion Qube)
Format: cell-based
Conditions: range of activity; for IC50: Table 6, inhibition of P2X3 current, agonist α,β-MeATP (800 nM)
Method: Pharmacological Activity of the Compounds of the Invention In Vitro Electrophysiology Assay for P2X3
Cells expressing P2X3 receptors were grown according to standard practice and maintained at 37° C. in a 5% humidified CO2 atmosphere. The cells were seeded into T175 flask 2 days prior to the day of the assay and dissociated from the flasks using TrypLE when grown to confluence of 80-90%. The dissociated cells were resuspended in serum free media at a cell density of 3×10^6 cells/ml and loaded onto the Sophion Qube automated patch-clamp system. The extracellular assay buffer contained 145 mM NaCl, 4 mM KCl, 2 mM CaCl2), 1 mM MgCl2, 10 mM HEPES, and 10 mM glucose at pH 7.4. The intracellular assay solution contained 140 mM CsF, 10 mM NaCl, 10 mM EGTA, 10 mM HEPES at pH 7.2. Agonist stock solutions were prepared in H2O and diluted in bath solution prior to use. All antagonists were prepared as 10 mM stock solutions in DMSO and diluted in bath solution prior to use. All experiments were performed under the whole-cell patch clamp configuration at room temperature with 384 individual cells being voltage clamped at −60 mV simultaneously on the Sophion Qube instrument. Two baseline responses were established with the application of α,β-MeATP (800 nM), with the subsequent agonist applications being washed out using extracellular assay buffer containing 0.5 U/ml apyrase. Following the second agonist application, antagonist was incubated in the absence of α,β-MeATP for 10 minutes. After antagonist preincubation, 800 nM α,β-MeATP and antagonist were co-administered to determine the inhibitory effect of the antagonist. One concentration of an antagonist was assessed against a single cell, with different concentrations of the antagonist applied to other cells on the 384 recording substrate. The control P2X3 current amplitude was taken from the peak current amplitude from the second agonist response prior to preincubation with antagonist. The peak P2X3 current amplitude in the presence of antagonist was used to calculate the inhibitory effect at each concentration of the antagonist according to the following equation: […]
Concentration-response curves were constructed from ten different concentrations with each concentration of antagonist tested on at least two individual cells. The concentration of the antagonist to inhibit P2X3 current by 50% (IC50) was determined by fitting the data with the following equation: […]
Where ‘a’ is minimum response, ‘b’ is maximum response, ‘c’ is IC50 and ‘d’ is Hill slope.
The results for individual compounds are provided below in Table 6 and are expressed as range of activity.
The activity of the comparative examples A and B have been tested in the in vitro Electrophysiology Assay for P2X3 as described above.

SMILES | IC50 [nM] | h P2X3 (inhibition of P2X3 current evoked by 800 nM α,β-MeATP, 10 min antagonist preincubation, comparative examples)
Cc1nnc([C@@H](C)Nc2ncnc3c(S(=O)(=O)N4CCOCC4)cc(-c4ccc(F)cc4)cc23)s1 (racemic) [Example 10, (Rac)-6-(4-fluorophenyl)-N-(1-(5-methyl-1,3,4-thiadiazol-2-yl)ethyl)-8-(morpholinosulfonyl)quinazolin-4-amine] | < 316 | 
Cc1cnc(-c2cc(OC3CCOCC3)c3ncnc(NC(C)c4ccc(C)nn4)c3c2)nc1 (single isomer, unassigned) [Example 29, N-[1-(6-methylpyridazin-3-yl)ethyl]-6-(5-methylpyrimidin-2-yl)-8-tetrahydropyran-4-yloxy-quinazolin-4-amine] | 316 to 3160 | 
Cc1noc(C(C)Nc2ncnc3c(OC4CCOCC4)cc(-c4ccc(F)cn4)cc23)n1 (single isomer, unassigned) [Example 85, 6-(5-fluoro-2-pyridyl)-N-[1-(3-methyl-1,2,4-oxadiazol-5-yl)ethyl]-8-tetrahydropyran-4-yloxy-quinazolin-4-amine] | < 316 | 
COc1cc(-c2ncc(C)cn2)cc2c(NC(C)c3ccc(C(F)(F)F)nn3)ncnc12 (single isomer, unassigned) [Example 120, 8-methoxy-6-(5-methylpyrimidin-2-yl)-N-[1-[6-(trifluoromethyl)pyridazin-3-yl]ethyl]quinazolin-4-amine] | < 316 | 
COc1cc(-c2ncc(C)cn2)cc2c(NC(C)c3nc(C)no3)ncnc12 (single isomer, unassigned) [Example 122, 8-Methoxy-N-[1-(3-methyl-1,2,4-oxadiazol-5-yl)ethyl]-6-(5-methylpyrimidin-2-yl)quinazolin-4-amine] | 3160 to 31600 | 
COc1cc(-c2ncc(C)cn2)cc2c(NC(C)c3nc(-c4ccncc4)no3)ncnc12 (single isomer, unassigned) [Example 167, 8-methoxy-6-(5-methylpyrimidin-2-yl)-N-(1-(3-(pyridin-4-yl)-1,2,4-oxadiazol-5-yl)ethyl)quinazolin-4-amine] | 316 to 3160 | 
COc1cc(-c2ccc(F)cn2)cc2c(NC(C)c3ccc(C(F)(F)F)nn3)ncnc12 (single isomer, unassigned) [Example 170, 6-(5-fluoro-2-pyridyl)-8-methoxy-N-[1-[6-(trifluoromethyl)pyridazin-3-yl]ethyl]quinazolin-4-amine] | 316 to 3160 | 
COc1cc(-c2ccc(F)cn2)cc2c(NC(C)c3nc(C)no3)ncnc12 (single isomer, unassigned) [Example 175, 6-(5-fluoropyridin-2-yl)-8-methoxy-N-(1-(3-methyl-1,2,4-oxadiazol-5-yl)ethyl)quinazolin-4-amine] | 316 to 3160 | 
COc1cc(-c2ccc(F)cc2)cc2c(NC(C)c3nc(-c4ccncc4)no3)ncnc12 (single isomer, unassigned) [Example 192, 6-(4-fluorophenyl)-8-methoxy-N-(1-(3-(pyridin-4-yl)-1,2,4-oxadiazol-5-yl)ethyl)quinazolin-4-amine] | 3160 to 31600 | 
Cc1nnc([C@@H](C)Nc2ncnc3c(S(=O)(=O)N(C)C)cc(-c4ccc(F)cc4)cc23)s1 (stereo in doubt) [Example 12, 6-(4-fluorophenyl)-N,N-dimethyl-4-((1-(5-methyl-1,3,4-thiadiazol-2-yl)ethyl)amino)quinazoline-8-sulfonamide] | < 316 | 
Cc1ccc(COc2ncnc3ncc(-c4ccc(F)cc4)cc23)cn1 [Comparative Example A, 6-(4-fluorophenyl)-4-[(6-methyl-3-pyridyl)methoxy]pyrido[2,3-d]pyrimidine, reference compound] |  | inactive
COc1cc(-c2ccc(F)cc2)cc2c(NC(C)c3cccc(=O)[nH]3)ncnc12 (centres unmarked) [Example 1, 6-(1-((6-(4-Fluorophenyl)-8-methoxyquinazolin-4-yl)amino)ethyl)pyridin-2(1H)-one] | < 316 | 
COc1cc(-c2ncc(F)cn2)cc2c(NC(C)c3nc(C)no3)ncnc12 (centres unmarked) [Example 3, 6-(5-fluoropyrimidin-2-yl)-8-methoxy-N-(1-(3-methyl-1,2,4-oxadiazol-5-yl)ethyl)quinazolin-4-amine] | 316 to 3160 | 
COc1cc(-c2ncc(F)cn2)cc2c(N[C@H](C)c3ccc(C)nn3)ncnc12 [Example 4] | 316 to 3160 | 
COc1cc(-c2ncc(C)cn2)cc2c(NC(C)c3nc(-c4ccncc4)no3)ncnc12 (centres unmarked) [Example 6, 8-methoxy-6-(5-methylpyrimidin-2-yl)-N-(1-(3-(pyridin-4-yl)-1,2,4-oxadiazol-5-yl)ethyl)quinazolin-4-amine] | 316 to 3160 | 

Continued, values first:

IC50 [nM] | h P2X3 (inhibition of P2X3 current evoked by 800 nM α,β-MeATP, 10 min antagonist preincubation, comparative examples) | SMILES
316 to 3160 |  | Cc1ccc(-c2cc(OC3CCOCC3)c3ncnc(NC(C)c4nnc(C)s4)c3c2)nc1 (single isomer, unassigned) [Example 83, 6-(5-methyl-2-pyridyl)-N-[1-(5-methyl-1,3,4-thiadiazol-2-yl)ethyl]-8-tetrahydropyran-4-yloxy-quinazolin-4-amine]
< 316 |  | Cc1ccc(-c2cc(OC3CCOCC3)c3ncnc(NC(C)c4nnc(C)s4)c3c2)nc1 (single isomer, unassigned) [Example 84, 6-(5-methyl-2-pyridyl)-N-[1-(5-methyl-1,3,4-thiadiazol-2-yl)ethyl]-8-tetrahydropyran-4-yloxy-quinazolin-4-amine]
316 to 3160 |  | COc1cc(-c2ncc(C)cn2)cc2c(NC(C)c3nnc(C)s3)ncnc12 (single isomer, unassigned) [Example 124, 8-Methoxy-6-(5-methylpyrimidin-2-yl)-N-[1-(5-methyl-1,3,4-thiadiazol-2-yl)ethyl]quinazolin-4-amine]
< 316 |  | COc1cc(-c2ncc(C)cn2)cc2c(NC(C)c3nnc(C)s3)ncnc12 (single isomer, unassigned) [Example 125, 8-Methoxy-6-(5-methylpyrimidin-2-yl)-N-[1-(5-methyl-1,3,4-thiadiazol-2-yl)ethyl]quinazolin-4-amine]
3160 to 31600 |  | COc1cc(-c2ccc(C)cn2)cc2c(NC(C)c3nnc(C)s3)ncnc12 (single isomer, unassigned) [Example 126, 8-methoxy-6-(5-methyl-2-pyridyl)-N-[1-(5-methyl-1,3,4-thiadiazol-2-yl)ethyl]quinazolin-4-amine]
3160 to 31600 |  | COc1cc(-c2ncc(C)cn2)cc2c(NC(C)c3nnc(C)o3)ncnc12 (single isomer, unassigned) [Example 128]
316 to 3160 |  | COc1cc(-c2ccc(C)cn2)cc2c(NC(C)c3nc(C)no3)ncnc12 (single isomer, unassigned) [Example 162, 8-Methoxy-N-[1-(3-methyl-1,2,4-oxadiazol-5-yl)ethyl]-6-(5-methyl-2-pyridyl)quinazolin-4-amine]
316 to 3160 |  | COc1cc(-c2ncc(C)s2)cc2c(NC(C)c3nnc(C)s3)ncnc12 (single isomer, unassigned) [Example 164, 8-methoxy-N-(1-(5-methyl-1,3,4-thiadiazol-2-yl)ethyl)-6-(5-methylthiazol-2-yl)quinazolin-4-amine]
< 316 |  | COc1cc(-c2ncc(C)s2)cc2c(NC(C)c3nnc(C)s3)ncnc12 (single isomer, unassigned) [Example 165, 8-methoxy-N-(1-(5-methyl-1,3,4-thiadiazol-2-yl)ethyl)-6-(5-methylthiazol-2-yl)quinazolin-4-amine]
316 to 3160 |  | Cc1cnc(-c2cc(OC3CCOCC3)c3ncnc(NC(C)c4nnc(C)s4)c3c2)s1 (single isomer, unassigned) [Example 171, N-[1-(5-methyl-1,3,4-thiadiazol-2-yl)ethyl]-6-(5-methylthiazol-2-yl)-8-tetrahydropyran-4-yloxy-quinazolin-4-amine]
< 316 |  | Cc1cnc(-c2cc(OC3CCOCC3)c3ncnc(NC(C)c4nnc(C)s4)c3c2)s1 (single isomer, unassigned) [Example 172, N-[1-(5-methyl-1,3,4-thiadiazol-2-yl)ethyl]-6-(5-methylthiazol-2-yl)-8-tetrahydropyran-4-yloxy-quinazolin-4-amine]
